Measured values as given in article PMC6155683, “Pharmacokinetics Studies of 12 Alkaloids in Rat Plasma after Oral Administration of Zuojin and Fan-Zuojin Formulas” (Molecules : A Journal of Synthetic Chemistry and Natural …, 2017).
Read-outs that look alike come from different tables or passages of the source.

What was measured:
[1] = Stability of analytes in rat plasma under storage conditions; format: physicochemical; conditions: n = 6; for Stability RE, 3 freeze-thaw cycles / Stability RE, 30 days at −20 °C: rat plasma; for Stability RE, processed samples' stability: room temperature 24 h
Protocol: The stabilities of analytes in plasma were assessed by analyzing the QC samples at three concentration levels under the following storage conditions: after three freeze (−20 °C)-thaw (room temperature) cycles; stored at −20 °C for 30 days, and comparing the results with those of freshly prepared QC samples. Stabilities of the processed samples at room temperature for 24 h were also assessed.

[2] = Dose modified systemic exposure (AUC0→∞/D, Cmax/D)
Protocol: Because the alkaloids content in ZJ and FZJ were no longer linear with the proportion of CR and EF after extraction process, AUC0→∞/D (ratio of AUC0→∞ and dose) and Cmax/D (ratio of Cmax and dose) were calculated to estimate the dose modified systemic exposure levels of the 12 alkaloids (Table 3). […] Physicochemical properties of these alkaloids had been calculated in silico to predict their human colon adenocarcinoma cell (Caco-2) permeability according to the three-property based rule (3PRule). Polar surface area (PSA), logarithm of the n-octanol/water distribution coefficient (LogD), molecular weight (MW), hydrogen bond donors (HBD), hydrogen bond acceptors (HBA), number of free rotatable bonds (NRB) and molar solubility (S) of the alkaloids were retrieved from SciFinder® (American Chemical Society).

[3] = PK study of the 12 alkaloids in rat plasma after oral administration of ZJ and FZJ extract (LC–MS/MS); format: in vivo; conditions: for AUC(0-t) / AUC(0-inf) / Cmax / MRT last / MRT inf / half-life / Tmax / Tsec (time of the secondary peak in C–T curve) / Csec (drug concentration of the secondary peak in C–T curve): rat plasma; for AUC(0-t) / AUC(0-inf) / Cmax / MRT last / MRT inf / half-life / Csec (drug concentration of the secondary peak in C–T curve): mean ± SD, n = 6; for AUC(0-t): read-out: AUC0→t; for AUC(0-inf): read-out: AUC0→∞; for Cmax: read-out: Cmax; for MRT last: read-out: MRT0→t (converted); for MRT inf: read-out: MRT0→∞ (converted); for half-life: read-out: t1/2; for Tmax: read-out: Tmax (converted)
Protocol: The time schedule included 15 time-points and six rats were sampled at each time-point. All the rats were orally administered with ZJ extract (suspended in water) at a dose of 3.38 g/kg body weight (dosages of the 12 alkaloids were shown in Table S4), equivalent to crude drug dose of 12 g/kg body weight. Blood samples were collected from the suborbital vein of the rats at 10, 20, 30, 60, 90, 120, 180, 240, 300, 330, 360, 480, 720, 1440, 2160 min after administration, and centrifuged immediately at 5000 rpm for 10 min. The plasma samples were stored at −20 °C until analysis.
Similarly, the time schedule of other rats included 15 time-points and six rats were orally administered with FZJ extract at a dose of 3.76 g/kg body weight (also equivalent to crude drug dose of 12 g/kg body weight, Table S4). Blood samples were collected and treated as mentioned above in the PK study of ZJ extract.
PK parameters of the 12 alkaloids including AUC0→t, AUC0→∞, mean retention time (MRT0→t, MRT0→∞), and elimination half-life (t1/2) were calculated with non-compartmental method by DAS 2.0 software (Mathematical Pharmacology Professional Committee of China, Shanghai, China). Maximum plasma drug concentration (Cmax) and time to reach the maximum plasma drug concentration (Tmax) were observed directly from the detected C–T data. The results were expressed as arithmetic mean ± standard deviation (SD).

[4] = Two-compartment model fitting of C–T curves (DAS 2.0); format: in vivo, rat
Text: Double peaks in C–T curves were observed repeatedly in the PK study of ZJ and related TCM prescriptions, but explanations to the phenomenon were still ambiguous. Generally, possible reasons for the double peak phenomenon could be summarized as follows: (a) enterohepatic circulation; […] (c) irregular pattern of gastric emptying. […] Moreover, Tmax of the alkaloids after administration of ZJ extract were deferred from that of FZJ administration. […] It probably play a major role in the double peak phenomenon, since the GI motility can affect the drug absorption.

## O=c1c2c3c(ccc2cc2n1CCc1cc4c(cc1-2)OCO4)OCO3 [8-oxocoptisine]
[1]; high QC concentration
  Stability RE, 3 freeze-thaw cycles: −12.48%
  Stability RE, 30 days at −20 °C: −14.51%
  Stability RE, processed samples' stability: 10.05%
[1]; low QC concentration
  Stability RE, 3 freeze-thaw cycles: 6.73%
  Stability RE, 30 days at −20 °C: 6.72%
  Stability RE, processed samples' stability: −3.71%
[1]; medium QC concentration
  Stability RE, 3 freeze-thaw cycles: 7.48%
  Stability RE, 30 days at −20 °C: 9.66%
  Stability RE, processed samples' stability: 10.68%
[2]; oral ZJ extract
  AUC0→∞/D (ratio of AUC0→∞ and dose): 44.44
  Cmax/D (ratio of Cmax and dose): 3.98
[3]; 3.38 g/kg, oral ZJ extract
  AUC(0-t): 24.7 ± 3.9 ng·h/mL
  AUC(0-inf): 27 ± 2.23 ng·h/mL
  Cmax: 2.46 ± 1.17 ng/mL
  MRT last: 10.1 h
  MRT inf: 13.5 h
  half-life: 8.93 ± 2.65 h
  Tmax: 5 h
[3]; oral FZJ extract
  plasma concentrations at most time points: below the LLOQ
[3]; oral ZJ extract
  Tsec (time of the secondary peak in C–T curve): 90 min
  Csec (drug concentration of the secondary peak in C–T curve): 2.42 ± 0.89 ng/mL

## COc1cc2c(cc1OC)C(=O)NCC2 [corydaldine]
[4]; oral FZJ extract
  AIC (Akaike's information criterion method), two-compartment model fitting: 3.947 ± 8.187
  r^2 (correlation coefficient method), two-compartment model fitting: 0.805 ± 0.066
[4]; oral ZJ extract
  AIC (Akaike's information criterion method), two-compartment model fitting: 85.431 ± 9.718
  r^2 (correlation coefficient method), two-compartment model fitting: 0.243 ± 0.267
[1]; high QC concentration
  Stability RE, 3 freeze-thaw cycles: −2.29%
  Stability RE, 30 days at −20 °C: −2.68%
  Stability RE, processed samples' stability: −10.59%
[1]; low QC concentration
  Stability RE, 3 freeze-thaw cycles: −1.98%
  Stability RE, 30 days at −20 °C: 15.65%
  Stability RE, processed samples' stability: 13.85%
[1]; medium QC concentration
  Stability RE, 3 freeze-thaw cycles: 3.89%
  Stability RE, 30 days at −20 °C: −11.86%
  Stability RE, processed samples' stability: −6.31%
[2]; oral FZJ extract
  AUC0→∞/D (ratio of AUC0→∞ and dose): 310.00
  Cmax/D (ratio of Cmax and dose): 173.00
[2]; oral ZJ extract
  AUC0→∞/D (ratio of AUC0→∞ and dose): 1688.21
  Cmax/D (ratio of Cmax and dose): 369.29
[3]; 3.38 g/kg, oral ZJ extract
  AUC(0-t): 45.1 ± 7.46 ng·h/mL
  AUC(0-inf): 47.3 ± 7.36 ng·h/mL
  Cmax: 10.3 ± 5.45 ng/mL
  MRT last: 6.72 h
  MRT inf: 8.55 h
  half-life: 9.92 ± 2.06 h
  Tmax: 1.5 h
[3]; 3.76 g/kg, oral FZJ extract
  AUC(0-t): 2.86 ± 0.35 ng·h/mL
  AUC(0-inf): 3.1 ± 0.46 ng·h/mL
  Cmax: 1.73 ± 0.58 ng/mL
  MRT last: 2.85 h
  MRT inf: 3.99 h
  half-life: 3.89 ± 1.29 h
  Tmax: 0.5 h
[3]; oral ZJ extract
  Tsec (time of the secondary peak in C–T curve): 300 min
  Csec (drug concentration of the secondary peak in C–T curve): 9.03 ± 4.31 ng/mL

## COc1cc2c(cc1OC)-c1cc3ccc4c(c3c(=O)n1CC2)OCO4 [8-oxoepiberberine]
[1]; high QC concentration
  Stability RE, 3 freeze-thaw cycles: −8.93%
  Stability RE, 30 days at −20 °C: −2.71%
  Stability RE, processed samples' stability: −7.73%
[1]; low QC concentration
  Stability RE, 3 freeze-thaw cycles: −14.18%
  Stability RE, 30 days at −20 °C: −13.41%
  Stability RE, processed samples' stability: −7.14%
[1]; medium QC concentration
  Stability RE, 3 freeze-thaw cycles: 0.37%
  Stability RE, 30 days at −20 °C: 0.36%
  Stability RE, processed samples' stability: 9.35%
[2]; oral ZJ extract
  AUC0→∞/D (ratio of AUC0→∞ and dose): 97.25
  Cmax/D (ratio of Cmax and dose): 13.92
[3]; 3.38 g/kg, oral ZJ extract
  AUC(0-t): 14.3 ± 2.32 ng·h/mL
  AUC(0-inf): 16.6 ± 3.22 ng·h/mL
  Cmax: 2.38 ± 1.14 ng/mL
  MRT last: 7.51 h
  MRT inf: 12.3 h
  half-life: 9.88 ± 4.57 h
  Tmax: 1.5 h
[3]; oral FZJ extract
  plasma concentrations at most time points: below the LLOQ
[3]; oral ZJ extract
  Tsec (time of the secondary peak in C–T curve): 300 min
  Csec (drug concentration of the secondary peak in C–T curve): 1.85 ± 0.99 ng/mL

## COc1cc2c(cc1OC)-c1cc3ccc4c(c3c[n+]1CC2)OCO4 [epiberberine]
[1]; high QC concentration
  Stability RE, 3 freeze-thaw cycles: −12.84%
  Stability RE, 30 days at −20 °C: −6.2%
  Stability RE, processed samples' stability: −10.77%
[1]; low QC concentration
  Stability RE, 3 freeze-thaw cycles: −3.64%
  Stability RE, 30 days at −20 °C: 13.92%
  Stability RE, processed samples' stability: 2.78%
[1]; medium QC concentration
  Stability RE, 3 freeze-thaw cycles: −6.12%
  Stability RE, 30 days at −20 °C: −13.86%
  Stability RE, processed samples' stability: −8.85%
[2]; oral FZJ extract
  AUC0→∞/D (ratio of AUC0→∞ and dose): 1.91
  Cmax/D (ratio of Cmax and dose): 0.81
[2]; oral ZJ extract
  AUC0→∞/D (ratio of AUC0→∞ and dose): 0.62
  Cmax/D (ratio of Cmax and dose): 0.12
[3]; 3.38 g/kg, oral ZJ extract
  AUC(0-t): 68.5 ± 15.9 ng·h/mL
  AUC(0-inf): 69.6 ± 15.5 ng·h/mL
  Cmax: 13.7 ± 7.05 ng/mL
  MRT last: 10.8 h
  MRT inf: 11.6 h
  half-life: 6.11 ± 1.7 h
  Tmax: 5 h
[3]; 3.76 g/kg, oral FZJ extract
  AUC(0-t): 10.1 ± 1.09 ng·h/mL
  AUC(0-inf): 11.4 ± 1.27 ng·h/mL
  Cmax: 4.82 ± 1.97 ng/mL
  MRT last: 3.89 h
  MRT inf: 5.26 h
  half-life: 3.92 ± 1.69 h
  Tmax: 3 h
[3]; oral ZJ extract
  Tsec (time of the secondary peak in C–T curve): 90 min
  Csec (drug concentration of the secondary peak in C–T curve): 5.51 ± 2.17 ng/mL
